The test system of data set [1] is Rattus norvegicus. Briefly: Cmax in Sprague-Dawley rat assessed as carbamazepine level at 5.50 mg/227 g, iv. The arrangement: route intravenous. The data set is classed as ADME, organism-based. The following applies: in vivo.
Data set [2] deals with Rattus norvegicus. Kind of data set: AUC in Sprague-Dawley rat assessed as carbamazepine level at 4.54 mg/187 g, iv. The settings on record: in vivo. The data set is classed as ADME, organism-based, Plasma.
Data set [3] can be described thus: Solubility at pH 2.6. It is filed as physicochemical. The following applies: buffer.
The test system of data set [4] is Rattus norvegicus. Briefly: AUC in Sprague-Dawley rat assessed as carbamazepine level at 5.50 mg/227 g, iv. The settings on record: in vivo. It is filed as ADME, organism-based, Plasma.
Data set [5] relates to Rattus norvegicus. Briefly: Cmax in Sprague-Dawley rat assessed as carbamazepine level at 4.54 mg/187 g, iv. The data set is classed as ADME, organism-based. The arrangement: route intravenous. The following applies: in vivo.

`NCCSNC(=O)N1c2ccccc2C=Cc2ccccc21.O=C(O)C(F)(F)F`: the Cmax in the data set on Rattus norvegicus [1] amounted to 16300 ng/mL; in the data set with Rattus norvegicus [5] it was 14100 ng/mL. The values for the AUC in the data set with Rattus norvegicus [2] and with Rattus norvegicus [4] were 964 µg/min/mL and 545 µg/min/mL, respectively. For the same molecule, the solubility in data set [3] worked out at 100 mg/mL.

A word on the Cmax: it is the highest concentration seen after dosing. One may read the solubility as the concentration that dissolves in the medium under given conditions. High values mean much dissolved substance, low ones little dissolved substance.

Values taken from ChEMBL document CHEMBL1140552, “Preparation, characterization and in vivo conversion of new water-soluble sulfenamide prodrugs of carbamazepine” (Bioorg Med Chem Lett, 2007).
